Test results as given in US20220332700A1, “NOVEL APOPTOSIS SIGNAL-REGULATING KINASE 1 INHIBITORS” (MANKIND PHARMA LTD, priority 2019, published 2022).

Legend:
[1] = biological target: T1, recombinant ASK1 (Homo sapiens, UniProt Q99683); test: ASK1 Biochemical Assay (HTRF KinEASE-STK S3); conditions: ATP 100 μM; read-out: Biochemical Assay IC50
T1 construct: purchased Carna Biosciences
Protocol: ASK1 biochemical assay was standardized using recombinant ASK1 (Carna Biosciences), substrate and detection reagents from Cisbio HRTF KinEASE-STK S3 kit. Enzyme concentration, ATP, biotinylated STK substrate and STK antibodies were titrated for enzyme assay. Assay was carried out in ASK1 kinase buffer, 10 mM MOPS pH-7, 10 mM Mg-acetate, 1 mM DTT, 0.025% NP40, 1.5% glycerol and 0.05% BSA. DMSO was used as vehicle control with a final concentration of 1%. A 5 ng of ASK1 enzyme was incubated with compound for 1 hour at 23° C. on a shaker at 100rpm. ATP and biotin substrate was added at a final concentration of 100 μM and 1 μM and incubated for 3 hours at 23° C. on a shaker at 100rpm. […] Delta F ratios were calculated from data obtained at excitation (337 nm) and emission wavelengths (665 nm and 620-10 nm). Substrate blank values was considered as negative control. Values from negative control was substrated from vehicle control and compound treated wells. Enzyme inhibition by compounds were calculated from vehicle controls, which represent uninterrupted enzyme's activity.

[2] = biological target: T2, Human ASK1 (Homo sapiens, UniProt Q99683); test: ASK1 Cell Based Assay (phospho p38 read out in hASK1 transfected HEK293T-AP1 cells); conditions: HEK293T-AP1 cells, 1 mM hydrogen peroxide, phospho p38; read-out: Cell Based Assay IC50
T2 construct: expressed in transfected cells; host or cells: HEK293T-AP1
T2 sequence (Q99683 1-1374): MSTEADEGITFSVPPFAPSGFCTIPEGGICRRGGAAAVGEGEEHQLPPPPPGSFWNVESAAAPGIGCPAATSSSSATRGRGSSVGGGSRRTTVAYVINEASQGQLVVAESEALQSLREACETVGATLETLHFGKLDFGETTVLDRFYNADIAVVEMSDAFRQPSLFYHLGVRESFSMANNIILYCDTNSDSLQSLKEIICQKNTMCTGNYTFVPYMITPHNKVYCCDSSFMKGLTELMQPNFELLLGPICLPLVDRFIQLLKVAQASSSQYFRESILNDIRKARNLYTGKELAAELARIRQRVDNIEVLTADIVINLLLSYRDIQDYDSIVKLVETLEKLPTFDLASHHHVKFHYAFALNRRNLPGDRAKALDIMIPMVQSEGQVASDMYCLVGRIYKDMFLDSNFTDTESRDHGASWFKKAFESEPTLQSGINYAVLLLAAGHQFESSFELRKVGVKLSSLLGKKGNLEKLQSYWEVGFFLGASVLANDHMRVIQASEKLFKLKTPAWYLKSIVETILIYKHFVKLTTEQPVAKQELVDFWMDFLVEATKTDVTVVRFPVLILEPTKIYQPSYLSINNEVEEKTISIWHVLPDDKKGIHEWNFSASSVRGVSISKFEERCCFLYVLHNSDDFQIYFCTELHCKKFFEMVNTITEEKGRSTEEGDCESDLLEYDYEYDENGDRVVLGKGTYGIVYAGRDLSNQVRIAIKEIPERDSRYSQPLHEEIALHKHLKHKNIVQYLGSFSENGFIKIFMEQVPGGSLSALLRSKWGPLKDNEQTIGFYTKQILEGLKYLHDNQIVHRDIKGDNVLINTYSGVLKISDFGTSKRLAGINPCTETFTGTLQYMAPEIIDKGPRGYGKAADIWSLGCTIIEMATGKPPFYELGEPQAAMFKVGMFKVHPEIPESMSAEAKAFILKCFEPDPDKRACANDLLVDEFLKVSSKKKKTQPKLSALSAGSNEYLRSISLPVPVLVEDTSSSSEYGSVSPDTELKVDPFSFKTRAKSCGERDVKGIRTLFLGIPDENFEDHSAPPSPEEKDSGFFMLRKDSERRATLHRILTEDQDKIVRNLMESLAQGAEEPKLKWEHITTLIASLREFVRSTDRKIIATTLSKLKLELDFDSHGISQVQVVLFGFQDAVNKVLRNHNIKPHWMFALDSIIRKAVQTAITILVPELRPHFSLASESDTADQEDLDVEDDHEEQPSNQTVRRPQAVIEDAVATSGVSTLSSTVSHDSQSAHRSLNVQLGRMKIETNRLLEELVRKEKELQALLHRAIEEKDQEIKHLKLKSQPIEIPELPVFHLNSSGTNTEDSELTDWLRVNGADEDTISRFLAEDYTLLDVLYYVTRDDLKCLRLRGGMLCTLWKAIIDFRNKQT
Protocol: HEK293T-AP1 cells were seeded at a density of 20,000 cells per well in a poly-d-lysine coated 96 well microplate. Next day, cells were transfected with hASK1-pcDNA3.1 vector using lipofectamine 3000. After 24 hours of transfection, cells were treated with compounds for 24 hours in assay medium. DMSO was used as a vehicle control with a final DMSO concentration of 0.2%. On 4th day, medium was discarded and cells were activated with 1 mM hydrogen peroxide for 1 hour in the presence of compounds. Cells were lysed for 1 hour with 1× lysis buffer on a shaker at 100 rpm. Sixteen microliters of lysate was collected into a 384 well small volume plate. Phospho p38 levels in the lysate was detected by using CisbioPhospho-p38 MAPK (Thr180/Tyr182) #64P38PEG.Four microliters of phospho p38 antibodies labelled with europium cryptate and d2 acceptor, were added to the lysate and incubated overnight. TR-FRET was measured at an excitation of 335 nm and emission was measured at 615 nm and 665 nm in BMG FLUOstar multimode reader.
Compounds were assessed for ASK1 inhibition based on phospho p38 read out. […] Background control values were susbtracted from vehicle control as well as from compound treated wells.

## CC(C)n1cnnc1-c1cccc(N2CCN(c3cccc(-n4ccnc4)c3)C2=O)n1 [Example 1002, 1-(3-(1H-imidazol-1-yl)phenyl)-3-(6-(4-isopropyl-4H-1,2,4-triazol-3-yl)pyridin-2-yl)imidazolidin-2-one]
[1]
  IC50: 0.07 µM
[2]
  IC50: > 1 µM

## CC(C)n1cnnc1-c1cccc(N2CCN(c3cccc(-c4ccc(S(C)(=O)=O)cc4)c3)C2=O)n1 [Example 1007, 1-(6-(4-isopropyl-4H-1,2,4-triazol-3-yl)pyridin-2-yl)-3-(4′-(methylsulfonyl)-[1,1′-biphenyl]-3-yl)imidazolidin-2-one]
[1]
  IC50: 0.03 µM
[2]
  IC50: > 1 µM

## CC(C)n1cnnc1-c1cccc(N2CCN(c3cccc(-c4ccc(S(C)(=O)=O)nc4)c3)C2=O)n1 [Example 1010, 1-(6-(4-isopropyl-4H-1,2,4-triazol-3-yl)pyridin-2-yl)-3-(3-(6-(methylsulfonyl)pyridin-3-yl)phenyl)imidazolidin-2-one]
[1]
  IC50: 0.025 µM
[2]
  IC50: > 1 µM

## CC(C)n1cnnc1-c1cccc(N2CCN(c3cccc(-c4ccncc4)c3)C2=O)n1 [Example 1011, 1-(6-(4-isopropyl-4H-1,2,4-triazol-3-yl)pyridin-2-yl)-3-(3-(pyridin-4-yl)phenyl)imidazolidin-2-one]
[1]
  IC50: < 1 µM
[2]
  IC50: > 10 µM

## CC(C)n1cnnc1-c1cccc(N2CCN(c3ccc(S(C)(=O)=O)cc3)C2=O)n1 [Example 1013, 1-(6-(4-isopropyl-4H-1,2,4-triazol-3-yl)pyridin-2-yl)-3-(4-(methylsulfonyl)phenyl)imidazolidin-2-one]
[1]
  IC50: < 0.1 µM
[2]
  IC50: < 1 µM

## CC(C)n1cnnc1-c1cccc(N2CCN(c3cccc(-c4cnn(S(C)(=O)=O)c4)c3)C2=O)n1 [Example 1014, 1-(6-(4-isopropyl-4H-1,2,4-triazol-3-yl)pyridin-2-yl)-3-(3-(1-(methylsulfonyl)-1H-pyrazol-4-yl)phenyl)imidazolidin-2-one]
[1]
  IC50: > 0.1 µM
[2]
  IC50: > 10 µM

## CC(C)n1cnnc1-c1cccc(N2CCN(c3ccc(S(C)(=O)=O)nc3)C2=O)n1 [Example 1018, 1-(6-(4-isopropyl-4H-1,2,4-triazol-3-yl)pyridin-2-yl)-3-(6-(methylsulfonyl)pyridin-3-yl)imidazolidin-2-one]
[1]
  IC50: < 0.1 µM
[2]
  IC50: > 1 µM

## COc1ccc(-c2ccc(S(C)(=O)=O)nc2)cc1N1CCN(c2cccc(-c3nncn3C(C)C)n2)C1=O [Example 1019, 1-(6-(4-isopropyl-4H-1,2,4-triazol-3-yl)pyridin-2-yl)-3-(2-methoxy-5-(6-(methylsulfonyl)pyridin-3-yl)phenyl)imidazolidin-2-one]
[1]
  IC50: > 0.1 µM
[2]
  IC50: > 10 µM

## CC(C)n1cnnc1-c1cccc(N2CCN(c3ccc(S(N)(=O)=O)cc3)C2=O)n1 [Example 1020, 4-(3-(6-(4-isopropyl-4H-1,2,4-triazol-3-yl)pyridin-2-yl)-2-oxoimidazolidin-1-yl)benzenesulfonamide]
[1]
  IC50: < 0.1 µM
[2]
  IC50: > 10 µM

## CC(C)n1cnnc1-c1cccc(N2CCN(c3cc(-c4ccc(S(C)(=O)=O)nc4)ccc3F)C2=O)n1 [Example 1021, 1-(2-fluoro-5-(6-(methylsulfonyl)pyridin-3-yl)phenyl)-3-(6-(4-isopropyl-4H-1,2,4-triazol-3-yl)pyridin-2-yl)imidazolidin-2-one]
[1]
  IC50: > 1 µM
[2]
  IC50: > 10 µM

## CC(C)n1cnnc1-c1cccc(N2CCNC2=O)n1 [Example 1022, 1-(6-(4-isopropyl-4H-1,2,4-triazol-3-yl)pyridin-2-yl)imidazolidin-2-one]
[1]
  IC50: < 0.1 µM
[2]
  IC50: > 1 µM

## CC(C)n1cnnc1-c1cccc(N2CCN(c3ccc(S(N)(=O)=O)cc3)C2=O)n1 [Example 1023, 4-(3-(6-(4-isopropyl-4H-1,2,4-triazol-3-yl)pyridin-2-yl)-2-oxoimidazolidin-1-yl)benzenesulfonamide]
[2]
  IC50: > 1 µM

## CC(C)n1cnnc1-c1cccc(N2CCN(c3ccc(S(=O)(=O)C4CC4)cc3)C2=O)n1 [Example 1025, 1-(4-(cyclopropylsulfonyl)phenyl)-3-(6-(4-isopropyl-4H-1,2,4-triazol-3-yl)pyridin-2-yl)imidazolidin-2-one]
[1]
  IC50: < 0.1 µM
[2]
  IC50: < 1 µM

## COCCCNC(=O)c1ccc(N2CCN(c3cccc(-c4nncn4C(C)C)n3)C2=O)cn1 [Example 1117, 5-(3-(6-(4-isopropyl-4H-1,2,4-triazol-3-yl)pyridin-2-yl)-2-oxoimidazolidin-1-yl)-N-(3-methoxypropyl)pyridine-2-carboxamide]
[1]
  IC50: < 0.1 µM

## CNC(=O)C1CCN(c2ccc(N3CCN(c4cccc(-c5nncn5C(C)C)n4)C3=O)cn2)C1 (centres unmarked) [Example 1119, 1-(5-(3-(6-(4-isopropyl-4H-1,2,4-triazol-3-yl)pyridin-2-yl)-2-oxoimidazolidin-1-yl)pyridin-2-yl)-N-methylpyrrolidine-3-carboxamide]
[1]
  IC50: < 0.05 µM

## CC(C)n1cnnc1-c1cccc(N2CCN(c3ccc(N4CCC(S(C)(=O)=O)CC4)nc3)C2=O)n1 [Example 1120, 1-(6-(4-isopropyl-4H-1,2,4-triazol-3-yl)pyridin-2-yl)-3-(6-(4-(methylsulfonyl)piperidin-1-yl)pyridin-3-yl)imidazolidin-2-one]
[1]
  IC50: < 0.1 µM

## CC(C)n1cnnc1-c1cccc(N2CCN(c3ccc(N4CCC(N(C)C)CC4)nc3)C2=O)n1 [Example 1121, 1-(6-(4-(dimethylamino)piperidin-1-yl)pyridin-3-yl)-3-(6-(4-isopropyl-4H-1,2,4-triazol-3-yl)pyridin-2-yl)imidazolidin-2-one]
[1]
  IC50: < 0.1 µM

## CNC(=O)C1CN(c2ccc(N3CCN(c4cccc(-c5nncn5C(C)C)n4)C3=O)cn2)C1 [Example 1122, 1-(5-(3-(6-(4-isopropyl-4H-1,2,4-triazol-3-yl)pyridin-2-yl)-2-oxoimidazolidin-1-yl)pyridin-2-yl)-N-methylazetidine-3-carboxamide]
[1]
  IC50: < 0.1 µM

## CNC(=O)C1CCN(C(C)c2ccc(N3CCN(c4cccc(-c5nncn5C(C)C)n4)C3=O)cc2)CC1 (centres unmarked) [Example 1127, 1-(1-(4-(3-(6-(4-isopropyl-4H-1,2,4-triazol-3-yl)pyridin-2-yl)-2-oxoimidazolidin-1-yl)phenyl)ethyl)-N-methylpiperidine-4-carboxamide]
[1]
  IC50: < 0.1 µM

## CC(C)n1cnnc1-c1cccc(N2CCN(c3ccnc(N4CCOCC4)c3)C2=O)n1 [Example 1132, 1-(6-(4-isopropyl-4H-1,2,4-triazol-3-yl)pyridin-2-yl)-3-(2-morpholinopyridin-4-yl)imidazolidin-2-one]
[1]
  IC50: > 1 µM
